Test results reported in patent US20160243136A1, “PHARMACEUTICAL FORMULATIONS CONTAINING MITOCHONDRIALLY TARGETED ANTIOXIDANTS” (Mitotech SA, priority 2013, published 2016).

Assays:
[1] = test system: renal tubular cells (RTC); test: In vitro inflammation model: renal tubular cells co-cultivated with bacterial lysate-activated leukocytes; type: cell-based, rat
Procedure: Kidneys from 1-3 day old rats were excised under aseptic conditions. The tissue was blended and dissociated by collagenase treatment (0.5%, 30 min at 37° C.). The final suspension was centrifuged for 5 min at 50 g. The pellet was resuspended in about 10 ml of DMEM/F12 (Gibco, USA) supplemented with 10% FCS (Gibco, USA) and kept for 2 min, after which the supernatant was transferred to another tube and the pellet was repeatedly resuspended. After 10 min, the renal tubules were pelleted and dissociated cells remaining in the suspension were discarded. The pellet was resuspended in DMEM/F12 with 10% FCS and seeded onto 24-well plates or onto coverslips placed in 35-mm glass-bottom Petri dishes.
E. coli strain No. 85 was cultured overnight in a cultivation medium containing 1% tryptone, 0.5% yeast extract and 1% NaCl (Sigma-Aldrich, USA). The medium, containing roughly 10^9 colony-forming units (CFU) per ml, was pelleted at 300 g for 3 min. The bacterial lysate was prepared by diluting 30 ml of an overnight (ON) culture and diluting the precipitate in 3 ml of 0.9% NaCl followed by autoclaving for 1.5 hr at 120° C.
5 ml heparinized blood collected from the jugular vein of adult male rats was carefully layered over 5 ml of Ficoll-Urografin (density of 1.077 g/cm^3), and centrifuged for 30 min at 200 g. This procedure results in erythrocyte pelleting, while the mononuclear fraction of leukocytes forms an interphase ring on the Ficoll surface, which was carefully collected. Leukocytes were transferred into another tube and centrifuged for 3 min at 200 g. The resultant pellet was resuspended in 5 ml of DMEM/F12. After cell counting in a hemocytometer, the cells were diluted to a final concentration of about 1×10^5 cells per ml.
In a two-day old renal cell culture, the medium was substituted with DMEM/F12 (400 μl per well, 1600 μl per dish), supplemented with (depending on the purpose): GSK-3β inhibitor LiCl (9 mM) (Sigma-Aldrich, USA), water-soluble antioxidant Trolox (50 μM, 100 μM) (Sigma-Aldrich, USA), MTAs 10-(6-plastoquinonyl)decyl-triphenylphosphonium (SkQ1), synthesized according to Antonenko et al. (2008) Biochemistry (Mosc) 73:1273-87), 10 nM, 100 nM), and 10-(6′-plastoquinonyl) decylrhodamine 19 SkQR1), synthesized according to Antonenko (2008), (1 nM, 10 nM, or 100 nM). Renal cells were incubated for 2 hr in this medium, followed by supplementation with leukocytes or neutrophils in DMEM/F12, or DMEM/F12, alone, in the control sample (400 μl per well, 1600 μl per dish). Simultaneously, the bacterial lysate or lipopolysaccharide (100 ng/ml, LPS, Sigma-Aldrich, USA) solution in DMEM/F12 and DMEM/F12 alone in the control sample (100 μl per well, 400 μl per dish) were added. Renal cells, leukocytes (neutrophils) were co-cultivated for 24 or 48 hr with bacterial lysate or LPS. Cell death (both necrotic and apoptotic) rate was evaluated using Annexin-V FITC Kit (Invitrogen, USA).
The ROS-sensitive fluorescent probe 2,7-DCF-DA (Molecular Probes, USA) dissolved in DMEM/F12 without bicarbonate (final concentration 10 μM) was added to renal cells (500 μl per well of 24-well plate, 2 ml per dish) and incubated for 15 min at 37° C. followed by a wash with DMEM/F12 without bicarbonate. MDA was determined as in (Mihara and Uchiyama (1978) Anal. Biochem. 86:271-8). Fluorescent probe, DAF-2-DA (Calbiochem, San Diego, Calif., USA) was used for NO determination in living cells. The procedure was the same as for 2,7-DCF-DA. The nitrite/nitrate concentration (as products of NO oxidation) in culture media was determined using Nitrite/Nitrate Assay Kit (Sigma-Aldrich, USA). TNFα was determined using the kit Rat TNFα ELISA Ready-SET-Go (Ebioscience, USA).
Renal cells were imaged with an LSM510 inverted confocal microscope (Carl Zeiss Inc., Jena, Germany) with excitation at 488 nm and emission collected at 500 nm-530 nm with a pinhole diameter of 150 μm. Images were processed using ImageJ software (NIH, Bethesda, Md., USA).

[2] = test system: Wistar rats with acute pancreatitis; test: Arginine-induced acute pancreatitis model; type: in vivo, rat; conditions: for MPO activity in pancreatic tissue homogenates: control 52.9, intact 6.1
Procedure: Kidney homogenates for MPO determination were centrifuged at 20000 g 15 min, the pellets were resuspended in 50 mM K-phosphate buffer containing 0.5% CTAB. Resulted samples were frozen and thawed three times and then centrifuged at 10600 g 10 min. Supernatants were analyzed for MPO activity in chromogenic reaction with o-phenylenediamine (OPD). 100 μl sample was mixed with 100 μl substrate buffer (25 mM Na-citrate, 50 mM Na-phosphate, 0.45 mg/ml OPD, 0.1% H2O2, pH 5.0) and was incubated 15 min at room temperature and then OD was detected at 492 nm.
42 Wistar rats (age: 20-25 week, weight 400 g-750 g) were distributed among 4 experiemntal groups with the same average weight. SkQ1 was administered with drinking water with an estimated dosage of 250 nmoles/kg/day or 50 nmoles/kg/day. Acute pancreatitis was induced by a single intraperitoneal (ip) injection of arginine (100 mg/100 g of animal weight; 20% arginine solution in about 2.5 ml phosphate buffer).
The experimental groups were: (1) Intact (n=10); (2) Control (n=10) treated with arginine ip injection; (3) SkQ250-SkQ1 pretreatment with 250 nmoles/kg/day dosage for 9 days; IP injection of arginine on day 9, continuation of SkQ1 treatment for 24 hr (n=10); and (4) SkQ50-SkQ1 pretreatment with 50 nmoles/kg/day dosage for 9 days. IP injection of arginine on day 9, continuation of SkQ1 treatment for 24 hr (n=10).
The activity of pancreatic myeloperoxidase (MPO) was also measured as described in Example 1 (for kidney tissue).
Samples of pancreas were fixed in 10% formalin and then prepared for eosin-hematoxylin staining of 5 μm-6 μm slices using standard techniques. Stained samples (slices) were examined under light microscopy.
The intensity of inflammation in the samples was measured by a standard ascending scale score from 0 to 3. The average score of inflammation in rats without SkQ treatment was 1.5.

CC1=C(C)C(=O)C(CCCCCCCCCC[P+](c2ccccc2)(c2ccccc2)c2ccccc2)=CC1=O [SkQ1, 10-(6-plastoquinonyl)decyl-triphenylphosphonium]
ROS production in renal cells (DCF fluorescence) ([1]; 10 nM, pretreatment 2 hr, co-cultivation with activated leukocytes): suppression of ROS production after co-cultivation with activated leukocytes to levels close to those observed on controls | renal cell death (Annexin V-positive) ([1]; 48 hr exposure to activated leukocytes, pre-incubation with drug): more pronounced than that afforded by the traditional water-soluble antioxidant, Trolox | MPO activity in pancreatic tissue homogenates ([2]; SkQ50: 50 nmoles/kg/day for 9 days + 24 hr): 50.0 | Average inflammation score (pancreas histology, scale 0 to 3) ([2]; SkQ50: 50 nmoles/kg/day, untreated pancreatitis 1.5): 1.5 | MPO activity in pancreatic tissue homogenates ([2]; SkQ250: 250 nmoles/kg/day for 9 days + 24 hr): 15.8 | weight of the pancreas (edema) ([2]; both dosages (250 and 50 nmoles/kg/day in drinking water)): prevented an increase
